The values below come from ChEMBL document CHEMBL3621073, “Bile acid amphiphiles with tunable head groups as highly selective antitubercular agents” (Medchemcomm, 2014).

The subject of data set [1] is Mycolicibacterium smegmatis. Kind of data set: Antimycobacterial activity against Mycobacterium smegmatis str. MC2 155 after 2 days by inverted microscopic analysis. The data set is classed as functional. The following applies: str. MC2 155, 48 h.
For data set [2], the system named is Mycobacterium tuberculosis. Kind of data set: Antimycobacterial activity against Mycobacterium tuberculosis H37Rv after 14 days by inverted microscopic analysis. The data set is classed as functional. The following applies: 336 h.
Data set [3] is described as follows: Therapeutic index, ratio of MHC50 for chicken RBC to MIC99 for Mycobacterium tuberculosis H37Rv. The following applies: chicken red blood cells, read-out: TI.
A short description of data set [4]: Therapeutic index, ratio of MHC50 for sheep RBC to MIC99 for Mycobacterium tuberculosis H37Rv. The following applies: sheep red blood cells, read-out: TI.
Data set [5] concerns Escherichia coli. Briefly: Antibacterial activity against Escherichia coli MTCC 443 after 12 hrs by microplate reader assay. It counts as functional. Particulars: MTCC 443, 12 h.
The subject of data set [6] is Staphylococcus aureus. Briefly: Antibacterial activity against Staphylococcus aureus MTCC 737 after 12 hrs by microplate reader assay. The data set is classed as functional. The following applies: MTCC 737, 12 h.
Data set [7] has as its system A549. Kind of data set: Cytotoxicity against human A549 cells after 48 hrs by MTT assay. The data set is classed as cell-based. The following applies: A549, 48 h. For orientation: Formazan colour is commonly taken as a measure of viable cells.
In data set [8] the test system is THP-1. Kind of data set: Cytotoxicity against human THP1 cells after 48 hrs by MTT assay. The data set is classed as cell-based. Particulars: THP-1, 48 h.
The subject of data set [9] is A549. Kind of data set: Cytotoxicity against human A549 cells assessed as effect on cell cycle phase at 100 uM by propidium iodide staining-based flow cytometry. The following applies: a549, 100 µM. For orientation: A flow cytometer gives signals particle by particle.

In brackets after ≈: the same amount, converted by molar mass.

By MIC99 is commonly meant the lowest concentration that inhibits either 99% of growth or 99% of the strains tested, depending on the study. A low value points to higher susceptibility. What is called IC50 is the concentration that inhibits the measured activity by half. A lower IC50 goes with greater potency in that assay. As for `COC(=O)CC[C@@H](C)[C@H]1CC[C@H]2[C@@H]3[C@H](OC(=O)C[N+]4(C)CCCCC4)C[C@@H]4C[C@H](OC(=O)C[N+]5(C)CCCCC5)CC[C@]4(C)[C@H]3CC[C@]12C`, the MIC99 in data set [1] is 1.56 µM; in data set [2] it was 12.5 µM; in data set [5], 128 µM; in [6], 256 µM. Besides, the selectivity ratio in data set [3] and in data set [4] was > 80 each time. Also, the IC50 was found to be 79 µM in [7] and 164 µM in [8].

For `COC(=O)CC[C@@H](C)[C@H]1CC[C@H]2[C@@H]3CC[C@@H]4C[C@H](OC(=O)C[n+]5ccccc5)CC[C@]4(C)[C@H]3C[C@H](OC(=O)C[n+]3ccccc3)[C@]12C`, the MIC99 is 1.56 µM in data set [1], 12.5 µM in [2], 128 µM in [5] and > 512 µM in data set [6]. For the same molecule, the selectivity ratio in data set [3] and in data set [4] was > 80 each time. Also, the IC50 in data set [7] came out at 78 µM; in [8], 124 µM.

On to `COC(=O)CC[C@@H](C)[C@H]1CC[C@H]2[C@@H]3[C@H](OC(=O)C[N+](C)(C)C)C[C@@H]4C[C@H](OC(=O)C[N+](C)(C)C)CC[C@]4(C)[C@H]3C[C@H](OC(=O)C[N+](C)(C)C)[C@]12C.[Cl-].[Cl-].[Cl-]`, for which the MIC99 is 12.5 µM in [1], 50 µM in [2], > 512 µM in data set [5] and > 512 µM in data set [6]. Also, the selectivity ratio in [3] and in data set [4] was > 20 each time. Moreover, the IC50 was > 200 µM in data set [7] and 80 µM in data set [8]. Further, the Activity entry in [9] is on record as “Non-toxic”.

For `COC(=O)CC[C@@H](C)[C@H]1CC[C@H]2[C@@H]3CC[C@@H]4C[C@H](OC(=O)C[N+](C)(C)C)CC[C@]4(C)[C@H]3CC[C@]12C`, the MIC99 was 6.25 µM in data set [1], 50 µM in data set [2], > 512 µM in [5] and > 512 µM in data set [6]. The selectivity ratio in data set [3] and in data set [4] was > 20 each time. Further, the IC50 in [7] was 69 µM; in [8], 62 µM.

As for `COC(=O)CC[C@@H](C)[C@H]1CC[C@H]2[C@@H]3CC[C@@H]4C[C@H](OC(=O)CN)CC[C@]4(C)[C@H]3CC[C@]12C`, the MIC99 in [1] was > 50 µM; in data set [2], > 50 µM; in [5], > 512 µM; in [6], > 512 µM. The selectivity ratio in data set [3] and in [4] was < 20 each time. In addition, the IC50 in data set [7] was 24.6 µM; in data set [8], 14 µM.

For the molecule `COC(=O)CC[C@@H](C)[C@H]1CC[C@H]2[C@@H]3CC[C@@H]4C[C@H](OC(=O)C[N+]5(C)CCCCC5)CC[C@]4(C)[C@H]3C[C@H](OC(=O)C[N+]3(C)CCCCC3)[C@]12C`, the MIC99 in data set [1] was 0.78 µM; in [2], 6.25 µM; in [5], > 512 µM; in data set [6], 128 µM. In addition, the selectivity ratio in data set [3] and in [4] was > 160 each time. Besides, the IC50 in data set [7] worked out at 50 µM; in data set [8], 77 µM.

`COC(=O)CC[C@@H](C)[C@H]1CC[C@H]2[C@@H]3[C@H](OC(=O)C[n+]4ccccc4)C[C@@H]4C[C@H](OC(=O)C[n+]5ccccc5)CC[C@]4(C)[C@H]3CC[C@]12C`: the MIC99 amounted to 3.12 µM in [1], 25 µM in data set [2], 128 µM in data set [5] and 256 µM in data set [6]. The selectivity ratio in [3] and in data set [4] was > 40 in each case. The IC50 in data set [7] is 168 µM; in data set [8], > 200 µM.

Consider `C[C@H]1COc2c(N3CCN(C)CC3)c(F)cc3c(=O)c(C(=O)O)cn1c23` [LEVOFLOXACIN], for which the MIC99 in [1] is 0.58 µM (≈ 0.21 µg/mL); in [2], 0.78 µM (≈ 0.282 µg/mL).

As for `C[C@H](CCC(=O)O)[C@H]1CC[C@H]2[C@@H]3[C@H](O)C[C@@H]4C[C@H](O)CC[C@]4(C)[C@H]3C[C@H](O)[C@]12C` [CHOLIC ACID], the Activity entry in [9] is recorded as “Non-toxic”.

With `COC(=O)CC[C@@H](C)[C@H]1CC[C@H]2[C@@H]3[C@H](OC(=O)C[n+]4ccc(N(C)C)cc4)C[C@@H]4C[C@H](OC(=O)C[n+]5ccc(N(C)C)cc5)CC[C@]4(C)[C@H]3CC[C@]12C`, the MIC99 in data set [1] turned out to be 0.78 µM; in [2], 3.12 µM; in [5] it was 128 µM; in data set [6] it was 128 µM. Also, the selectivity ratio in data set [3] and in [4] was > 320 each time. Also, the IC50 in data set [7] was 154 µM; in data set [8], 137 µM.

With `COC(=O)CC[C@@H](C)[C@H]1CC[C@H]2[C@@H]3CC[C@@H]4C[C@H](OC(=O)C[N+]5(C)CCCCC5)CC[C@]4(C)[C@H]3CC[C@]12C`, the MIC99 is 6.25 µM in [1], 50 µM in data set [2], > 512 µM in [5] and > 512 µM in [6]. Also, the selectivity ratio in [3] and in data set [4] was > 20 each time. The IC50 came out at 42 µM in data set [7] and 77 µM in data set [8].

For the molecule `COC(=O)CC[C@@H](C)[C@H]1CC[C@H]2[C@@H]3[C@H](OC(=O)C[N+](C)(C)C)C[C@@H]4C[C@H](OC(=O)C[N+](C)(C)C)CC[C@]4(C)[C@H]3CC[C@]12C`, the MIC99 in data set [1] worked out at 3.12 µM; in data set [2], 12.5 µM; in data set [5] it was 256 µM; in data set [6], 512 µM. For the same molecule, the selectivity ratio in data set [3] and in data set [4] was > 80 in each case. The IC50 in data set [7] turned out to be 144 µM; in data set [8] it was 142 µM.

For `COC(=O)CC[C@@H](C)[C@H]1CC[C@H]2[C@@H]3[C@H](OC(=O)C[N+]4(C)CCCCC4)C[C@@H]4C[C@H](OC(=O)C[N+]5(C)CCCCC5)CC[C@]4(C)[C@H]3C[C@H](OC(=O)C[N+]3(C)CCCCC3)[C@]12C.[Cl-].[Cl-].[Cl-]`, the MIC99 was 6.25 µM in data set [1], 25 µM in data set [2], > 512 µM in data set [5] and 512 µM in data set [6]. Besides, the selectivity ratio in [3] and in data set [4] was > 40 each time. The IC50 in [7] and in data set [8] was > 200 µM each time. The Activity entry in [9] was “Non-toxic”.

Take `COC(=O)CC[C@@H](C)[C@H]1CC[C@H]2[C@@H]3CC[C@@H]4C[C@H](OC(=O)C[n+]5ccc(N(C)C)cc5)CC[C@]4(C)[C@H]3C[C@H](OC(=O)C[n+]3ccc(N(C)C)cc3)[C@]12C`: the MIC99 is 0.78 µM in data set [1], 4.68 µM in data set [2], 64 µM in data set [5] and 64 µM in data set [6]. For the same molecule, the selectivity ratio in data set [3] and in [4] was > 213 throughout. Besides, the IC50 in data set [7] worked out at 50 µM; in data set [8], 63 µM.

In the case of `NNC(=O)c1ccncc1` [ISONIAZID], the MIC99 was > 50 µM in [1] and 0.78 µM (≈ 0.107 µg/mL) in [2].

Take `COC(=O)CC[C@@H](C)[C@H]1CC[C@H]2[C@@H]3CC[C@@H]4C[C@H](OC(=O)CN)CC[C@]4(C)[C@H]3C[C@H](OC(=O)CN)[C@]12C`: the MIC99 in data set [1] is > 50 µM; in [2], > 50 µM; in data set [5], 16 µM (≈ 8.33 µg/mL); in [6], 64 µM (≈ 33.3 µg/mL). The selectivity ratio in data set [3] and in [4] was < 20 each time. Also, the IC50 in [7] came out at 14.7 µM; in data set [8], 14 µM.

As to `COC(=O)CC[C@@H](C)[C@H]1CC[C@H]2[C@@H]3CC[C@@H]4C[C@H](OC(=O)C[n+]5ccc(N(C)C)cc5)CC[C@]4(C)[C@H]3CC[C@]12C`, the MIC99 in [1] is 12.5 µM; in data set [2] it was 50 µM; in [5] it was > 512 µM; in data set [6] it was > 512 µM. Besides, the selectivity ratio in [3] and in data set [4] was > 20 in each case. Also, the figures for the IC50 in data set [7] and in [8] were 112 µM and 86 µM, respectively.

As to `COC(=O)CC[C@@H](C)[C@H]1CC[C@H]2[C@@H]3[C@H](OC(=O)CN)C[C@@H]4C[C@H](OC(=O)CN)CC[C@]4(C)[C@H]3CC[C@]12C`, the MIC99 is > 50 µM in data set [1], > 50 µM in data set [2], 64 µM (≈ 33.3 µg/mL) in [5] and 128 µM (≈ 66.7 µg/mL) in [6]. In addition, the selectivity ratio in data set [3] and in data set [4] was < 20 in each case. For the same molecule, the IC50 in data set [7] was found to be 14.8 µM; in data set [8] it was 13.7 µM.

For `COC(=O)CC[C@@H](C)[C@H]1CC[C@H]2[C@@H]3CC[C@@H]4C[C@H](OC(=O)C[n+]5ccccc5)CC[C@]4(C)[C@H]3CC[C@]12C`, the MIC99 in data set [1] was 25 µM; in data set [2], > 50 µM; in data set [5] it was > 512 µM; in [6] it was > 512 µM. For the same molecule, the selectivity ratio in data set [3] and in data set [4] was < 20 each time. Also, the IC50 was found to be 68 µM in data set [7] and 89 µM in [8].

With `COC(=O)CC[C@@H](C)[C@H]1CC[C@H]2[C@@H]3CC[C@@H]4C[C@H](OC(=O)C[N+](C)(C)C)CC[C@]4(C)[C@H]3C[C@H](OC(=O)C[N+](C)(C)C)[C@]12C`, the MIC99 in data set [1] was 12.5 µM; in [2], > 50 µM; in data set [5], 256 µM; in data set [6], 256 µM. Moreover, the selectivity ratio in data set [3] and in [4] was < 20 throughout. Moreover, the IC50 came to 157 µM in [7] and 105 µM in data set [8].
